Reference: DBAASP
Converted amounts (≈) assume the structure as drawn.

What was measured:
Assay in all cases: ≥ marks a high value that may be exact or a test limit, other limits are often not marked, values filed in µg/mL are converted to µM
[1] = tested on: Staphylococcus aureus ATCC 25923
[2] = tested on: Escherichia coli ATCC 25726
[3] = tested on: Pseudomonas aeruginosa Ps4
[4] = tested on: Escherichia coli ATCC 25922

| SMILES | MIC [1] [µM] | MIC [2] [µM] | MIC [3] [µM] | MIC [4] [µM] |
| --- | --- | --- | --- | --- |
| CC[C@H](C)[C@@H]1NC(=O)[C@H](C)NC(=O)[C@@H](NC(=O)[C@H](Cc2ccccc2)NC(=O)[C@@H](NC(=O)[C@@H](NC(=O)[C@@H]2CCCN2C(=O)[C@@H](NC(=O)[C@@H](NC(=O)[C@H](CCCCN)NC(=O)[C@H](C)NC(=O)[C@H](C)NC(=O)[C@@H](NC(=O)[C@H](CCCN=C(N)N)NC(=O)[C@H](CC(C)C)NC(=O)[C@@H](NC(=O)[C@H](C)NC(=O)[C@@H]2CCCN2C(=O)[C@H](CC(C)C)NC(=O)[C@@H](N)Cc2ccccc2)C(C)C)C(C)C)[C@@H](C)CC)C(C)C)[C@@H](C)O)C(C)C)CSSC[C@@H](C(=O)O)NC(=O)[C@H](CCCCN)NC(=O)[C@H](CCCCN)NC(=O)[C@H](CO)NC1=O [FLPAVLRVAAKIVPTVFCAISKKC] | 3.11 (≈ 7.99 µg/mL) | 24.3 (≈ 62.5 µg/mL) |  |  |
| CC[C@H](C)[C@H](NC(=O)[C@H](CC(N)=O)NC(=O)[C@H](CCCN=C(N)N)NC(=O)[C@H](CCC(N)=O)NC(=O)[C@H](Cc1c[nH]c2ccccc12)NC(=O)[C@@H](N)Cc1ccccc1)C(=O)N[C@@H](CCCN=C(N)N)C(=O)N[C@@H](CCCCN)C(=O)N[C@@H](Cc1c[nH]c2ccccc12)C(=O)N[C@@H](CCCN=C(N)N)C(N)=O [FWQRNIRKWR] |  |  | ≥ 83.9 | 83.9 (≈ 125 µg/mL) |
| CC[C@H](C)[C@H](NC(=O)CNC(=O)CNC(=O)[C@H](CCCCN)NC(=O)[C@H](Cc1ccccc1)NC(=O)[C@H](Cc1ccccc1)NC(=O)[C@H](CCCCN)NC(=O)[C@H](CCCCN)NC(=O)[C@H](CC(C)C)NC(=O)[C@@H](NC(=O)[C@H](CC(=O)O)NC(=O)[C@H](CCCCN)NC(=O)[C@@H](NC(=O)[C@@H](NC(=O)[C@@H]1CCCN1C(=O)[C@@H]1CCCN1C(=O)[C@@H](NC(=O)[C@H](CCCCN)NC(=O)[C@@H](N)Cc1ccccc1)[C@@H](C)CC)[C@@H](C)CC)C(C)C)[C@@H](C)O)C(=O)N[C@@H](C)C(=O)NCC(=O)N[C@H](C(=O)N[C@@H](CCSC)C(=O)NCC(=O)N[C@@H](CCC(N)=O)C(=O)O)C(C)C [FKIPPIVKDTLKKFFKGGIAGVMGQ] | 5 (≈ 13.6 µg/mL) | 20 (≈ 54.4 µg/mL) |  |  |
| CC[C@H](C)[C@H](NC(=O)CNC(=O)[C@H](Cc1ccccc1)NC(=O)[C@H](CCSC)NC(=O)[C@@H](NC(=O)[C@H](CC(N)=O)NC(=O)[C@H](CCCCN)NC(=O)[C@H](Cc1ccccc1)NC(=O)[C@H](C)NC(=O)CNC(=O)[C@H](CCCCN)NC(=O)[C@H](Cc1ccccc1)NC(=O)CN)C(C)C)C(=O)N[C@@H](C)C(=O)N[C@@H](CCCCN)C(=O)N[C@@H](CO)C(=O)N[C@@H](C)C(=O)NCC(=O)N[C@@H](CCCCN)C(=O)N[C@@H](CO)C(=O)N[C@@H](C)C(=O)N[C@@H](CC(C)C)C(=O)N[C@@H](CC(N)=O)C(=O)N[C@@H](C)C(=O)N[C@@H](CC(C)C)C(=O)N[C@@H](C)C(=O)N[C@H]1CSSC[C@@H](C(=O)O)NC(=O)[C@H](CO)NC(=O)[C@H](CCCCN)NC(=O)[C@H](CC(=O)O)NC(=O)[C@H]([C@@H](C)CC)NC(=O)[C@H](CCCCN)NC1=O [GFKGAFKNVMFGIAKSAGKSALNALACKIDKSC] | 9.18 (≈ 31 µg/mL) | 9.18 (≈ 31 µg/mL) |  |  |
| CC(C)C[C@@H]1NC(=O)CNC(=O)[C@H](CO)NC(=O)[C@H](CC(C)C)NC(=O)[C@H](C)NC(=O)[C@@H](NC(=O)[C@H](C)NC(=O)[C@@H](NC(=O)[C@H](CCCCN)NC(=O)[C@H](CCCCN)NC(=O)CNC(=O)[C@H](C)NC(=O)CNC(=O)[C@H](Cc2ccccc2)NC(=O)[C@H](CC(C)C)NC(=O)[C@H](CO)NC(=O)CNC(=O)[C@H](CC(C)C)NC(=O)[C@H](CC(C)C)NC(=O)CN)C(C)C)CSSC[C@@H](C(=O)O)NC1=O [GLLGSLFGAGKKVACALSGLC] | 63.6 (≈ 125 µg/mL) | 31.8 (≈ 62.4 µg/mL) |  |  |
| CC[C@H](C)[C@H](NC(=O)[C@H](CC(N)=O)NC(=O)[C@H](CCCN=C(N)N)NC(=O)[C@H](CCC(N)=O)NC(=O)[C@H](Cc1c[nH]c2ccccc12)NC(=O)[C@@H](N)Cc1ccccc1)C(=O)N[C@@H](CCCN=C(N)N)C(=O)N[C@@H](Cc1c[nH]c2ccccc12)C(=O)N[C@@H](CCCN=C(N)N)C(=O)N[C@@H](CCCN=C(N)N)C(N)=O [FWQRNIRWRR] |  |  | ≥ 165 |  |
